Drawing on patent publication US7342032B2 (dated 2008), this text covers melting point for four compounds.

The compound `O=C(Nc1ccccc1)c1nc(-c2ccc(Cl)cc2Cl)c(-c2ccc(Cl)cc2)s1` yielded a melting point of 167 to 168 °C. Compound `O=C(NN1CCCCCC1)c1nc(-c2ccc(Cl)cc2Cl)c(-c2ccc(Cl)cc2)s1` yielded a melting point of 185 to 186 °C. The figure for `O=C(NCCCC(F)(F)F)c1nc(-c2ccc(Cl)cc2Cl)c(-c2ccc(Cl)cc2)s1` is 99 to 101 °C. Take `O=C(NN1CCCCC1)c1nc(-c2ccc(Cl)cc2Cl)c(-c2ccc(Br)cc2)s1`: the melting point lay within 171 to 173 °C.
